# Legend:
# TBEV (strain Hypr) = assay: microbe, parasite or virus in culture; type: cell-based, tick-borne encephalitis virus; conditions: for EC50: Tick-borne encephalitis virus, 48 h, read-out: EC50, anti-TBEV activity
# in vitro = conditions: pig
# TBEV RdRp = TBEV RdRp (Tick-borne encephalitis virus, UniProt Q01299); assay: biochemical
# flaviviral RdRp = type: biochemical, Flaviviridae (JEV, NTAV, TBEV, YFV, ZIKV)
# [1] = Cytotoxicity (XTT) in Caco-2 cells; conditions: human
# Caco-2 cells = assay: Cytotoxicity (XTT) in Caco-2 cells
# Calu-3 cells = assay: Cytotoxicity (XTT) in Calu-3 cells
# [2] = Cytotoxicity (XTT) in Calu-3 cells; conditions: human
# SARS-CoV-2 [3] = type: cell-based
# YFV RdRp = YFV RdRp (Yellow fever virus, UniProt P03314); assay: biochemical
# Chain of YFV RdRp (P03314 2507-3411 limits assumed): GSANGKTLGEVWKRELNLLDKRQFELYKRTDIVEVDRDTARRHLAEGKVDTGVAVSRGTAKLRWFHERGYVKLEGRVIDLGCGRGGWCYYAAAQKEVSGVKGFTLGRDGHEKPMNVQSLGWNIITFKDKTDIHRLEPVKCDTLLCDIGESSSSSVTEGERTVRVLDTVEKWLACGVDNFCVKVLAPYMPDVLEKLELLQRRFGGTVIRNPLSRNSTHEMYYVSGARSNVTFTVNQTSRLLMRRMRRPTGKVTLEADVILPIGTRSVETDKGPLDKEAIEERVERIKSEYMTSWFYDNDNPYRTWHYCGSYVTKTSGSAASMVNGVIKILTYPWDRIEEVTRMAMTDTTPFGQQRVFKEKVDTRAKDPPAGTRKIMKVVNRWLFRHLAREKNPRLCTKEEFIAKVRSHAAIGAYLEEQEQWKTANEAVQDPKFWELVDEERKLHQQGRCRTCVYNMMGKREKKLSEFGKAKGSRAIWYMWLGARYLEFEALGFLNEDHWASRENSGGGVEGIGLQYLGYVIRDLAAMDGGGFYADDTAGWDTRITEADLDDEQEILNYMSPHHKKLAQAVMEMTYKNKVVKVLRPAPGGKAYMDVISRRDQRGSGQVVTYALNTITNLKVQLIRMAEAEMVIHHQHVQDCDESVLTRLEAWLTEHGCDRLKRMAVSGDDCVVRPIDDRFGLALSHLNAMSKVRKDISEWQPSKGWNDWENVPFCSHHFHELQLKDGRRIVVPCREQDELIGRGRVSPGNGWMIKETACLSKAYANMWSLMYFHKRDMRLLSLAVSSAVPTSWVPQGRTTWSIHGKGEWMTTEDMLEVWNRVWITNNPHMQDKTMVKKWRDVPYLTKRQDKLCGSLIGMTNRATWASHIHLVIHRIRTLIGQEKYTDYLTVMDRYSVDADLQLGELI
# SARS-CoV-2 [4] = assay: Anti-SARS-CoV-2 cytopathic effect (CPE)-based assay in Calu-3 cells; type: cell-based; conditions: Severe acute respiratory syndrome coronavirus 2, 72 h, MOI 0.04, 3 days, XTT, read-out: EC50, inhibition of virus-induced CPE
# SARS-CoV-2 [5] = assay: SARS-CoV-2 yield reduction assay (plaque assay) in VERO-E6 cells; type: cell-based; conditions: MOI 0.04, 3 days
# JEV RdRp = target: T1, JEV RdRp (Japanese encephalitis virus, UniProt P32886); assay: biochemical
# T1 construct: NS5 proteins and SARS-CoV-2 nsp12, nsp8 and nsp7 were expressed with appropriate purification and folding tags; His6-TEV site (N); made in house; host or cells: E. coli BL-21 CodonPlus (DE3)-RIL
# WNV RdRp = target: T2, WNV RdRp (West Nile virus, UniProt Q9Q6P4); assay: biochemical
# T2 construct: NS5 proteins and SARS-CoV-2 nsp12, nsp8 and nsp7 were expressed with appropriate purification and folding tags; His6-TEV site (N); made in house; host or cells: E. coli BL-21 CodonPlus (DE3)-RIL
# T2 sequence (Q9Q6P4 2529-3433 limits assumed): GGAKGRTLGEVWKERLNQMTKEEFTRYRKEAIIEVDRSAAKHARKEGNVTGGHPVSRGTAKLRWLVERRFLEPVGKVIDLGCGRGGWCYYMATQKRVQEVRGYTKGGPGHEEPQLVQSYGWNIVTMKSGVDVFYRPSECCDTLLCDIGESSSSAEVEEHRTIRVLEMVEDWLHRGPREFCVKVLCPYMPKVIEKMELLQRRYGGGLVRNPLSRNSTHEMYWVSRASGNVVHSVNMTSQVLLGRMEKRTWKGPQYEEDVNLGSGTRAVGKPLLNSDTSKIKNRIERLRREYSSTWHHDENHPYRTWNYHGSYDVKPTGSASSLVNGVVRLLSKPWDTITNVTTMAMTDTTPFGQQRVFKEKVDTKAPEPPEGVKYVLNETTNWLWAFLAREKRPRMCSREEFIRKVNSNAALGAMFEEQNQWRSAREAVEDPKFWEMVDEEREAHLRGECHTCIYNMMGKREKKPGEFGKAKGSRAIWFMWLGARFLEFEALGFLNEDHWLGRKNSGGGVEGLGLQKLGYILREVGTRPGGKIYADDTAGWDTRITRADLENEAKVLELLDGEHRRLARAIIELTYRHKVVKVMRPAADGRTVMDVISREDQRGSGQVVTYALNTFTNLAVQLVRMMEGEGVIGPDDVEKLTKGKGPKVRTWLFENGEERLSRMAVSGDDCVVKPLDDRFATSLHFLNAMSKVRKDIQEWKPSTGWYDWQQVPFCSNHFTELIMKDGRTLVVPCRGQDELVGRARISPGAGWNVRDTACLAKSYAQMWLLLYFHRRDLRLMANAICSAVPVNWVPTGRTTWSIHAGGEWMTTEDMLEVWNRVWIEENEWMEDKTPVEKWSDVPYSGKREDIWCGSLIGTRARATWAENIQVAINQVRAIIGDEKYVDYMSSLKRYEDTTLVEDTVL
# NTAV RdRp = NTAV RdRp (Ntaya virus, UniProt K0BRZ6); assay: Radioactive polymerase assay (IC50), NTAV RdRp; type: biochemical; conditions: radioactively labeled elongation products, [α-32P]-ATP, hairpin RNA
# Chain of NTAV RdRp (K0BRZ6 2523-3427): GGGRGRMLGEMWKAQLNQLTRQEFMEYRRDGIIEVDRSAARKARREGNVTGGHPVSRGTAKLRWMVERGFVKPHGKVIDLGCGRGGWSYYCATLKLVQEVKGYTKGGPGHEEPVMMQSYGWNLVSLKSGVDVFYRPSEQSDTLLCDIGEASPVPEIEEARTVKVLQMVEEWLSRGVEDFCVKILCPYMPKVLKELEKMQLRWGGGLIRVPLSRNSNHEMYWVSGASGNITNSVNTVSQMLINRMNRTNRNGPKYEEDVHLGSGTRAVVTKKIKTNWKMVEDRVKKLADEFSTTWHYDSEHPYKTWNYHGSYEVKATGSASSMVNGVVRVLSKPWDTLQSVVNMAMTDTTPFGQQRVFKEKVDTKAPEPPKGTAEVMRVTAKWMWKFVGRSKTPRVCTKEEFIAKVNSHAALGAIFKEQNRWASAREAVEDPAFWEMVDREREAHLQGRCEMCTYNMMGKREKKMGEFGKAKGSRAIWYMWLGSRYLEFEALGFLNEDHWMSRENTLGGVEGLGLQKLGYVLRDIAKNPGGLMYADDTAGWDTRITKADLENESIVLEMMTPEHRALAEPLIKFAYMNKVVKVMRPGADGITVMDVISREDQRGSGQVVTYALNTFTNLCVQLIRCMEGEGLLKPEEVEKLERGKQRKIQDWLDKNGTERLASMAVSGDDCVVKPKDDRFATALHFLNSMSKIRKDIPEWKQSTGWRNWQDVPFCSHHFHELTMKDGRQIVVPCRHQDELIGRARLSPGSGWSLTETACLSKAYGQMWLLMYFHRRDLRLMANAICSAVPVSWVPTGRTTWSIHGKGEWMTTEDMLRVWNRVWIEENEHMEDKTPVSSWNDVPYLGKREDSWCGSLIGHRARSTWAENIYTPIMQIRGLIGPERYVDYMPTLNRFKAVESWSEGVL
# VERO-E6 cells = assay: Cytotoxicity (XTT) in VERO-E6 cells; conditions: 3 days
# SARS-CoV-2 RdRp = target: T3, SARS-CoV-2 RdRp (Severe acute respiratory syndrome coronavirus 2, UniProt P0DTD1); assay: biochemical
# T3 construct: except for the full length nsp12 protein, which was expressed in insect cells; His6 (C); made in house; host or cells: nsp12 in insect cells; nsp7 and nsp8 in E. coli BL-21 CodonPlus (DE3)-RIL
# [6] = target: T4, SARS-CoV-2 RdRp (nsp7, nsp8 and nsp12) (Severe acute respiratory syndrome coronavirus 2, UniProt P0DTD1); type: biochemical
# T4 construct: except for the full length nsp12 protein, which was expressed in insect cells; His6 (C); made in house; host or cells: nsp12 in insect cells; nsp7 and nsp8 in E. coli BL-21 CodonPlus (DE3)-RIL
# ZIKV RdRp = ZIKV RdRp (Zika virus, UniProt A0A1L5YKZ2); assay: Radioactive polymerase assay (IC50), ZIKV RdRp; type: biochemical; conditions: radioactively labeled elongation products, [α-32P]-ATP, hairpin RNA
# Chain of ZIKV RdRp (A0A1L5YKZ2 2521-3423): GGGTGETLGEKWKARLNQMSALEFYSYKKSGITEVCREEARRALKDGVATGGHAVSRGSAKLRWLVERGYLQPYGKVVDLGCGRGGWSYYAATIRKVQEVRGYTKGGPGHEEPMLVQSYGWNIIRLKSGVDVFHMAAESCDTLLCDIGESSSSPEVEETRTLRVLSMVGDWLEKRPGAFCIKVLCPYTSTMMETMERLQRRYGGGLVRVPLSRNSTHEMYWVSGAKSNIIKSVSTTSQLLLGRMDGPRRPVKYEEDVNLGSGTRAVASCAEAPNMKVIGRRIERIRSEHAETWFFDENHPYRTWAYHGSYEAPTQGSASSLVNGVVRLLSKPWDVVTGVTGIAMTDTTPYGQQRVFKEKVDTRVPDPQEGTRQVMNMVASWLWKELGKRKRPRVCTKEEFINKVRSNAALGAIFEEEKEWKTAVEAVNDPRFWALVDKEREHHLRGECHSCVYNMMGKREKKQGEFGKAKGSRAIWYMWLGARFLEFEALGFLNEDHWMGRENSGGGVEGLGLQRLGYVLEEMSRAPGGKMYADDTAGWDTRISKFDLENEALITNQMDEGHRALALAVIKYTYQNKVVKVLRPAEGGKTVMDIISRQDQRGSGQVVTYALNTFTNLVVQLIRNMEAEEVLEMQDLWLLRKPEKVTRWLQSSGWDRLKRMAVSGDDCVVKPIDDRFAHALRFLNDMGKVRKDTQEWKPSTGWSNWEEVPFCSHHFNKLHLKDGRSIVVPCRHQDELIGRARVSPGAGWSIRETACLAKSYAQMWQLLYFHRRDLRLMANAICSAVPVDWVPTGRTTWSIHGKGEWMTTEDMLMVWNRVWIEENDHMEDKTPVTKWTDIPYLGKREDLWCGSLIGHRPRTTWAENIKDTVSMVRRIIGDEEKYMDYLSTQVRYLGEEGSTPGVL
# SARS-CoV-2 [7] = assay: Anti-SARS-CoV-2 immunofluorescence assay (IFA) in VERO-E6 cells; type: cell-based; conditions: Severe acute respiratory syndrome coronavirus 2, Vero C1008, 72 h, MOI 0.02, 3 days, read-out: EC50, inhibition of SARS-CoV-2 (nucleoprotein IFA)
# SARS-CoV-2 [8] = assay: Anti-SARS-CoV-2 immunofluorescence assay (IFA) in Caco-2 cells; type: cell-based; conditions: Severe acute respiratory syndrome coronavirus 2, MOI 0.002, read-out: EC50, inhibition of SARS-CoV-2 replication (nucleoprotein IFA)
# Chain of TBEV RdRp (Q01299 2512-3414 limits assumed): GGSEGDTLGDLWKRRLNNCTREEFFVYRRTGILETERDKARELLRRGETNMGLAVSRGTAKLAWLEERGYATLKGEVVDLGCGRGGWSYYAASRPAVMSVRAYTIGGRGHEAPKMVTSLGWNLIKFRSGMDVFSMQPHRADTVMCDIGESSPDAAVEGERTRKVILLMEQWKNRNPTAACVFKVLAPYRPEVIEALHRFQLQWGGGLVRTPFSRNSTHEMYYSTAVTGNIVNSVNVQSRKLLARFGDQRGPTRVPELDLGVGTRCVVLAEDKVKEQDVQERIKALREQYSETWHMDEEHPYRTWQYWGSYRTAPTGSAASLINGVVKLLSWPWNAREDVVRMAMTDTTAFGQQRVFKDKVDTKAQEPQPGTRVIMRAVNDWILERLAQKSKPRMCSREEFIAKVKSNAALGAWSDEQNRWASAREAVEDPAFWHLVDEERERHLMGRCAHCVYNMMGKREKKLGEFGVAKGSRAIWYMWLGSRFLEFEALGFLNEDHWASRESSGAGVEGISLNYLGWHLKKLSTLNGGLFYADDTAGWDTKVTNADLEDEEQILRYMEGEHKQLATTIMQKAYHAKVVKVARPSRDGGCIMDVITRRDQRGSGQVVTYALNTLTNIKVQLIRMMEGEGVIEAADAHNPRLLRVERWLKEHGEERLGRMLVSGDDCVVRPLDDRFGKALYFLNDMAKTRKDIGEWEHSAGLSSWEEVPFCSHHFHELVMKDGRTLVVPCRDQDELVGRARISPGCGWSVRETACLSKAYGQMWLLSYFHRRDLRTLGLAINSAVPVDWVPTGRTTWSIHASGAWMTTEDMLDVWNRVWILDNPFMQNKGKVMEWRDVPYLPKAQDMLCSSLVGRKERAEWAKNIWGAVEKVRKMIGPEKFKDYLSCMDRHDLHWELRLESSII
smiles,measurement,setting,value
"C[C@@]1(O)[C@H](O)[C@@H](CO)O[C@H]1n1ccc2c(N)ncnc21 [7-deaza-2′-CMA, 7-deaza-2′-C-methyladenosine, reference compound]",EC50,TBEV (strain Hypr),0.43 ± 0.06 µM
same,CC50,in vitro,> 50 µM
Cc1c(C)c2c(c3c1CC[n+]1ccc(/C=C4\Sc5ccccc5N4C)cc1-3)-c1cccc(/C=C3\Sc4ccccc4N3C)[n+]1CC2 [PR673],IC50,TBEV RdRp,3.6 ± 0.2 µM
same,inhibition of RNA synthesis by flaviviral RdRps,flaviviral RdRp,strong inhibition of RNA synthesis in low micromolar concentrations
same,CC50 at 3 days,[1],> 50 µM
same,cytotoxicity at the highest used concentration,Caco-2 cells,mild cytotoxicity
same,cytotoxicity at the highest used concentration,Calu-3 cells,mild cytotoxicity
same,CC50 at 3 days,[2],> 50 µM
same,anti-TBEV activity in comparison to 7-deaza-2′-CMA,TBEV (strain Hypr),almost four-fold higher
same,compound concentration of complete inhibition of TBEV replication,TBEV (strain Hypr),0.4 µM
same,EC50,TBEV (strain Hypr),0.11 µM
same,inhibition of virus replication (virus-induced CPE) in screen,SARS-CoV-2 [3],inhibited the replication of the virus
same,IC50,YFV RdRp,3 ± 0.1 µM
same,EC50,SARS-CoV-2 [4],18 µM
same,activity compared with remdesivir in yield reduction assay,SARS-CoV-2 [5],much less active than the COVID-19 drug remdesivir
same,reduction in viral plaques,SARS-CoV-2 [5]; at 50 µM,58%
same,IC50,JEV RdRp,3.9 ± 0.4 µM
same,IC50,WNV RdRp,3.4 ± 0.2 µM
same,IC50,NTAV RdRp,3.1 ± 0.2 µM
same,cell toxicity,VERO-E6 cells,no cell toxicity
same,IC50,SARS-CoV-2 RdRp,4 ± 0.2 µM
same,PR673 concentration at which synthesis of RNA was totally blocked,[6],above 12.5 µM
same,IC50,ZIKV RdRp,4.9 ± 0.5 µM
same,EC50,SARS-CoV-2 [7],29 µM
same,EC50,SARS-CoV-2 [8],17 µM
same,CC50,in vitro,> 50 µM

# From paper PMC8953834, “A Helquat-like Compound as a Potent Inhibitor of Flaviviral and Coronaviral Polymerases” (Molecules, 2022)
